According to patent publication US20130035329A1, “THERAPEUTICALLY ACTIVE COMPOSITIONS AND THEIR METHODS OF USE” (priority 2009, published 2013):

Target: IDH1 R132H (Homo sapiens, UniProt O75874, R132H)
Assay: High Throughput Screening (HTS) for IDH1 R132H inhibitors (resazurin/NADPH fluorescence assay)
Assay type: biochemical
Details: IDH1m; assay similar to Example 1; class symbols
Protocol: A compound described herein may be an inhibitor of IDH1m. […] B refers to an inhibitor of IDH1m with an IC50 between 1 μM and 50 μM. C refers to an inhibitor of IDH1m with an IC50 greater than 50 μM. D refers to a compound wherein an IC50 is not available.
Assays were conducted in a volume of 76 μl assay buffer (150 mM NaCl, 10 mM MgCl2, 20 mM Tris pH 7.5, 0.03% bovine serum albumin) as follows in a standard 384-well plate: To 25 ul of substrate mix (8 uM NADPH, 2 mM aKG), 1 μl of test compound was added in DMSO. The plate was centrifuged briefly, and then 25 μl of enzyme mix was added (0.2 μg/ml ICDH1 R132H) followed by a brief centrifugation and shake at 100 RPM. The reaction was incubated for 50 minutes at room temperature, then 25 μl of detection mix (30 μM resazurin, […]) was added and the mixture further incubated for 5 minutes at room temperature. The conversion of resazurin to resorufine was detected by fluorescent spectroscopy at Ex544 Em590 c/o 590.

Chain of IDH1 R132H (O75874 whole entry R132H): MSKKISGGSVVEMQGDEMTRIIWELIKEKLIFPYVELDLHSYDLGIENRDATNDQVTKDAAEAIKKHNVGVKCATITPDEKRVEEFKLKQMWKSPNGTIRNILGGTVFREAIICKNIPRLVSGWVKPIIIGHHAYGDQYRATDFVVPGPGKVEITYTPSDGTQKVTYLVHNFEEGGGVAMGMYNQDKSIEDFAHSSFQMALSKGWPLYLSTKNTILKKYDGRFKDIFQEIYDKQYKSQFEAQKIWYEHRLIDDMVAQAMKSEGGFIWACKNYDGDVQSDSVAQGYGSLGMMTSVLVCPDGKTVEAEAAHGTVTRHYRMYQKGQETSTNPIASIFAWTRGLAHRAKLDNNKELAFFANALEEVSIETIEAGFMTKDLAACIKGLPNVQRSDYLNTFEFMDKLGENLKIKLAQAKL

IC50 [µM] | Molecule
1 to 50 | CCCCc1ccc(NS(=O)(=O)c2ccc(C)c(C(=O)N3CCN(c4ccccc4)CC3)c2)cc1
1 to 50 | CCOc1ccc(NS(=O)(=O)c2ccc(C)c(C(=O)N3CCN(c4ccccc4OC)CC3)c2)cc1
1 to 50 | CCCCc1ccc(NS(=O)(=O)c2ccc(C)c(C(=O)N3CCN(c4ccccc4F)CC3)c2)cc1
< 1 | CCCCc1ccc(NS(=O)(=O)c2ccc(C)c(C(=O)N3CCN(c4ccccc4C)CC3)c2)cc1
1 to 50 | CCCCc1ccc(NS(=O)(=O)c2ccc(C)c(C(=O)N3CCN(C(=O)c4ccccc4)CC3)c2)cc1
1 to 50 | CCCCc1ccc(NS(=O)(=O)c2ccc(C)c(C(=O)N3CCN(C(=O)Cc4ccccc4)CC3)c2)cc1
1 to 50 | CCCCc1ccc(NS(=O)(=O)c2ccc(C)c(C(=O)N3CCN(CC(C)c4ccccc4)CC3)c2)cc1 (stereo not drawn)
1 to 50 | CCCCc1ccc(NS(=O)(=O)c2ccc(C)c(C(=O)N3CCN(Cc4ccccc4CC)CC3)c2)cc1
1 to 50 | CCCCc1ccc(NS(=O)(=O)c2ccc(C)c(C(=O)N3CCN(CCc4ccccc4)CC3)c2)cc1
1 to 50 | CCCCc1ccc(NS(=O)(=O)c2ccc(C)c(C(=O)N3CCN(C(C)c4ccccc4)CC3)c2)cc1 (stereo not drawn)
1 to 50 | CCCCc1ccc(NS(=O)(=O)c2ccc(C)c(C(=O)N3CCN(C(=O)OCc4ccccc4)CC3)c2)cc1
1 to 50 | CCCCc1ccc(NS(=O)(=O)c2ccc(C)c(C(=O)N3CCN(C(=O)Oc4ccccc4)CC3)c2)cc1
1 to 50 | CCCCc1ccc(NS(=O)(=O)c2ccc(C)c(C(=O)N3CCN(C(=O)OC(C)C)CC3)c2)cc1
< 1 | CCCCc1ccc(NS(=O)(=O)c2ccc(C)c(C(=O)N3CCN(c4ccccc4CC)CC3)c2)cc1
1 to 50 | CCCCc1ccc(NS(=O)(=O)c2ccc(C)c(C(=O)N3CCN(c4ccc(Cl)cc4)CC3)c2)cc1
1 to 50 | CCCCc1ccc(NS(=O)(=O)c2ccc(C)c(C(=O)N3CCN(c4ccc(OCCC)cc4)CC3)c2)cc1
1 to 50 | CCCCc1ccc(NS(=O)(=O)c2ccc(C)c(C(=O)N3CCCN(c4ccccc4F)CC3)c2)cc1
1 to 50 | CCCCc1ccc(NS(=O)(=O)c2ccc(C)c(C(=O)N3CCCN(c4ccccc4C)CC3)c2)cc1
1 to 50 | CCCCc1ccc(NS(=O)(=O)c2ccc(C)c(C(=O)N3CCN(c4ccccc4OCC)CC3)c2)cc1
1 to 50 | CCCCc1ccc(NS(=O)(=O)c2ccc(C)c(C(=O)N3CCN(c4ccccc4OC(C)C)CC3)c2)cc1
1 to 50 | CCCCc1ccc(NS(=O)(=O)c2ccc(C)c(C(=O)N3CCN(c4ccccc4OCC4CC4)CC3)c2)cc1
1 to 50 | CCCCc1ccc(NS(=O)(=O)c2ccc(C)c(C(=O)N3CCN(c4ccccc4OCCC)CC3)c2)cc1
1 to 50 | CCCCc1ccc(NS(=O)(=O)c2ccc(C)c(C(=O)N3CCN(c4cccc(Cl)c4)CC3)c2)cc1
1 to 50 | CCCCc1ccc(NS(=O)(=O)c2ccc(C)c(C(=O)N3CCN(c4ccc(OC)cc4OC)CC3)c2)cc1
1 to 50 | CCCCc1ccc(NS(=O)(=O)c2ccc(C)c(C(=O)N3CCN(c4ccc(OC)cc4O)CC3)c2)cc1
1 to 50 | CCCCc1ccc(NS(=O)(=O)c2ccc(C)c(C(=O)N3CCN(c4ccc(F)c(OC)c4)CC3)c2)cc1
1 to 50 | CCCCc1ccc(NS(=O)(=O)c2ccc(C)c(C(=O)N3CCN(c4ccccc4Br)CC3)c2)cc1
1 to 50 | CCCCc1ccc(NS(=O)(=O)c2ccc(C)c(C(=O)N3CCN(c4ccccc4C(F)(F)F)CC3)c2)cc1

Further lines, the molecule ahead of its results:

Molecule | IC50 [µM]
COc1ccccc1N1CCN(C(=O)c2cccc(S(=O)(=O)Nc3ccc(C(C)(C)C)cc3)c2)CC1 | 1 to 50
COc1ccccc1N1CCN(C(=O)c2cc(S(=O)(=O)Nc3ccc(C(C)(C)C)cc3)ccc2C)CC1 | 1 to 50
CCCCc1ccc(NS(=O)(=O)c2cccc(C(=O)N3CCN(c4ccnc5[nH]ccc45)CC3)c2)cc1 | 1 to 50
CCCCc1ccc(NS(=O)(=O)c2ccc(C)c(C(=O)N3CCN(C(=O)OCC(C)C)CC3)c2)cc1 | 1 to 50
COc1ccccc1N1CCN(C(=O)c2cc(S(=O)(=O)Nc3ccc(OCc4nnco4)cc3)ccc2C)CC1 | 1 to 50
COc1ccccc1N1CCN(C(=O)c2cc(S(=O)(=O)Nc3ccc4[nH]ccc4c3)ccc2C)CC1 | 1 to 50
COCOc1ccc(NS(=O)(=O)c2ccc(C)c(C(=O)N3CCN(c4ccccc4OC)CC3)c2)cc1 | 1 to 50
COCCOCOc1ccc(NS(=O)(=O)c2ccc(C)c(C(=O)N3CCN(c4ccccc4OC)CC3)c2)cc1 | 1 to 50
CCCCOc1ccc(NS(=O)(=O)c2ccc(C)c(C(=O)N3CCN(c4ccccc4OC)CC3)c2)c(C)c1C | 1 to 50
CCCCc1ccc(NS(=O)(=O)c2cc3c(c(C(=O)N4CCN(c5ccccc5OC)CC4)c2)OCCO3)cc1 | 1 to 50
COc1ccccc1NS(=O)(=O)c1cccc(C(=O)N2CCN(c3ccccc3)CC2)c1 | > 50
COc1ccccc1NS(=O)(=O)c1cccc(C(=O)N2CCN(c3ccccc3OC)CC2)c1 | > 50
COc1ccccc1N1CCCN(C(=O)c2cccc(S(=O)(=O)Nc3ccc(Cl)cc3)c2)CC1 | > 50
Cc1ccc(NS(=O)(=O)c2cccc(C(=O)N3CCN(c4ccccc4)CC3)c2)cc1 | > 50
O=C(c1cccc(S(=O)(=O)Nc2ccccc2F)c1)N1CCN(c2ccccn2)CC1 | > 50
COc1ccccc1N1CCCN(C(=O)c2cccc(S(=O)(=O)Nc3ccccc3F)c2)CC1 | 1 to 50
COc1ccccc1N1CCN(C(=O)c2cc(S(=O)(=O)Nc3ccccc3)ccc2C)CC1 | > 50
COc1ccc(NS(=O)(=O)c2cccc(C(=O)N3CCCN(c4ccccc4OC)CC3)c2)cc1 | > 50
Cc1cc(F)ccc1NS(=O)(=O)c1cccc(C(=O)N2CCN(c3ccccc3)CC2)c1 | > 50
Cc1ccc(S(=O)(=O)Nc2ccccc2F)cc1C(=O)N1CCN(c2ccccn2)CC1 | > 50
COc1ccccc1N1CCCN(C(=O)c2cccc(S(=O)(=O)Nc3ccc(C)cc3)c2)CC1 | > 50
COc1ccccc1N1CCN(C(=O)c2cc(S(=O)(=O)Nc3ccccc3F)ccc2C)CC1 | > 50
COc1ccc(NS(=O)(=O)c2ccc(C)c(C(=O)N3CCN(c4ccccn4)CC3)c2)cc1 | > 50
CCCCc1ccc(NS(=O)(=O)c2ccc(Cl)c(C(=O)N3CCN(C(C)=O)CC3)c2)cc1 | > 50
COc1ccccc1N1CCN(C(=O)c2cc(S(=O)(=O)Nc3ccc(CCN4CCCC4)cc3)ccc2C)CC1 | > 50
CCCCc1ccc(C(=O)Nc2cccc(C(=O)N3CCN(c4ccccc4OC)CC3)c2)cc1 | 1 to 50
CCCCc1ccc(OC(=O)Nc2cccc(C(=O)N3CCN(c4ccccc4OC)CC3)c2)cc1 | > 50

Same assay, conditions: IDH1m; number printed in Table 1 instead of a class symbol

Molecule | IC50 [µM]
COc1ccc(NS(=O)(=O)c2ccc(C)c(C(=O)N3CCN(c4ccccc4)CC3)c2)cc1 | 51

Tested on: recurrent glioma
Assay: not given
Details: recurrent glioma patients; bevacizumab used with irinotecan; cited from earlier work

Molecule | 6-month survival [%]
bevacizumab: "The anti-angiogenic agent bevacizumab"; listed among "exemplary antibodies" | 46
